# From patent publication US20230134760A1, “CAR AND NRF2 DUAL ACTIVATOR AGENTS FOR CYCLOPHOSPHAMIDE-BASED AND DOXORUBICIN-BASED TREATMENTS OF CANCER” (priority 2020, published 2023)
# What was measured:
# MDA-MB-231 cells = assay: Cell viability assay, DOX-induced toxicity in MDA-MB-231 cells; format: cell-based; conditions: MDA-MB-231, DOX 2.5 μM
# Method: (§1) Immortalized triple negative breast cancer cell lines MDA-MB-231 and BT549 were obtained from ATCC (Rockville, Md.). Additionally, the h9c2 cell line was purchased from ATCC (Rockville, Md.). […] Human iPSC-derived cardiomyocytes were maintained in Mtesr plus and supplemented according to protocol. These cells were treated for 2 hrs or an overnight as indicated. Following a 2 hr pretreatment, cells were co-treated with DOX at indicated concentrations for 6 or 22 hours. Following the overnight treatments, RNA or protein was isolated. HPH were seeded in collagen-coated 24 well plates and pretreated for 24 hrs. BT549 were seeded on inverted coverslips. After a 24 hr pretreatment, hepatocytes were co-administered as indicated and coverslips were inserted. The cell lines were used for less than 60 passages. H9c2 cells were seeded 0.8×10^5 in 24-well plates. […] A Cell Counting Kit-8 (Enzo) assay was carried out. Cell viability was described as a percent of vehicle control (0.1% DMSO).
# BT549 cells [1] = assay: Cell viability assay, DOX-induced toxicity in BT549 cells; format: cell-based; conditions: BT549, DOX 2.5 μM
# Method: as §1
# hCAR = hCAR luciferase reporter assay in HepG2 cells (hCAR1+A, CYP2B6-2.2k reporter); format: cell-based, human
# Method: HepG2 cells were cultured in 24-well plates (1×10^5 cells/well) and transfected with either a hCAR1+A expression vector (30 ng/well), a CYP2B6-2.2k reporter (60 ng/well) reporter, and pRL-TK (10 ng/well) or a ARE expression vector using X-tremeGENE 9 DNA Transfection Reagent (Sigma-Aldrich). After an overnight transfection, cells were treated with a vehicle control (0.1% DMSO), RIF (10 μM), DL7076 (1 μM, 5 μM, and 10 μM) for 24 hours. Cell lysates were assayed for luciferase activity and normalized against the activity of the Renilla luciferase using a Dual-Luciferase Kit (Promega).
# HPH/BT549 coculture = assay: LC-MS/MS determination of 4-OH-CPA formation in HPH/BT549 coculture medium; format: cell-based, human; conditions: DL7076 10 μM
# Method: During the pre-treatment time, BT549 cells were seeded at 0.8×10^5 on collagen-coated coverslips modified to have their corners bent (FIG. 40a). […] 200 μL of cell culture medium was removed from each treatment group was immediately mixed with 20 μL of semicarbazide (SCZ; 2M) to stabilize 4-OH-CPA to its derivative 4-OH-CPA-SCZ. Once removed, samples were vortexed and left at room temperature for 10 minutes. 2 μM HMP was added as an internal standard and 200 μL acetonitrile was used to precipitate protein. Mass transitions were monitored at m/z: 261-140 for CPA, m/z: 334-221 for 4-OH-CPA-SCZ, and m/z: 180-135 for HMP under the positive multiple reaction monitoring mode.
# BT549 cells [2] = assay: HPH/BT549 co-culture, CPA cytotoxicity (CCK8); format: cell-based; conditions: HPH/BT549 coculture, DL7076 10 μM + CPA
# Method: HPH were cultured in collagen-coated 24 well plates and pre-treated with vehicle control (0.1% DMSO), CITCO (1 μM) or DL7076 (5 μM or 10 μM) for 24 h. […] Following the 24 h pre-treatment, coverslips were combined in hepatocyte seeded wells and exposed to designated concentrations of cyclophosphamide in the presence or absence of DL7076 for various time intervals, as indicated.
# H9c2 cells were seeded 0.8×10^5 in 24-well plates. Following cell attachment, a 2 h pre-treatment with vehicle control (0.1% DMSO), SFN (2.5 μM) or DL7076 (1 μM, 5 μM, or 10 μM) was done followed by doxorubicin (2.5 μM) exposure for 22 h. Co-culture cells were assembled and treated with cyclophosphamide and doxorubicin as indicated. A Cell Counting Kit-8 (Enzo) assay was carried out. Cell viability was described as a percent of vehicle control (0.1% DMSO). Cardiomyocyte, human iPSC-derived cardiomyocytes, and BT549 viability was determined with a 1 hr incubation of 6% CCK8 in WEM.
# CYP2B6 = format: cell-based; conditions: human, hepatocytes
# Method: HPH were obtained from BIOIVT (Baltimore, Md.) and seeded at 1.5×10^6 or 7.5×10^5 cells/well in 6- or 12-well collagen I-coated plates, while 24-well collagen I-coated plates were seeded at 3.75×10^5 cells/well as described previously. 24 hours after seeding, HPH were cultured cells were overlaid with 0.25 mg/mL Matrigel Corning, Corning, N.Y.) 24 h after seeding in serum-free William's E Medium (WEM) supplemented with ITS+(insulin, transferrin, and selenium, 100×; […] Millipore Sigma), 100 U/ml penicillin, and 100 μg/ml streptomycin (Pen-Strep; ThermoFisher Scientific, Waltham, Mass.), and 2 mM L-glutamine (Invitrogen, Carlsbad, Calif.). Overlaid HPH were treated with compounds in Complete WEM (CYP2B6 and CYP3A4 studies and coculture studies). After 24 h treatment, HPH, BT549, MDA-MB-231, and H9c2 cells were washed and a phenol-chloroform extraction was used to isolate total RNA with the TRIzol reagent (ThermoFisher, Rockford, Ill.). Reverse transcription was performed on extracted RNA (1 μg) to produce cDNA using the High Capacity cDNA Archive kit according to manufacturer's instructions (Applied Biosystems, Foster, Calif.). […] Quantification of expression changes was done by the 2^ΔΔCt method, normalizing to GAPDH as the housekeeping gene and determining the fold change compared to control values (n=3). […]
# [3] = tested on: iPSC-derived cardiomyocytes; assay: Cell viability, DOX-induced cytotoxicity in iPSC-derived cardiomyocytes; format: cell-based, human; conditions: co-administration with DOX
# Method: as §1
compound,measurement,setting,value
"O=C(NCCN=C=S)c1c(-c2ccc3ccccc3c2)nc2sccn12 [DL7076, N-(2-Isothiocyanatoethyl)-6-(naphthalen-2-yl)imidazo[2,1-b]thiazole-5-carboxamide]",reversal of DOX-induced toxicity (viability),MDA-MB-231 cells,this efficient reversal was not shown
same,reversal of DOX-induced toxicity (viability),BT549 cells [1],this efficient reversal was not shown
same,"CAR1+A activation, luciferase reporter","hCAR; HepG2, 10 μM, 24 hours, vs CITCO 1 μM","activate CAR1+A in a comparable manner to the prototypical CAR activator, CITCO"
same,hCAR luciferase activity (efficacy among compound hybrids),"hCAR; HepG2, screening, FIG. 37a",highest efficacy
same,rate and extent of CPA biotransformation to 4-OH-CPA,HPH/BT549 coculture; coculture medium,increased rate and extent of CPA biotransformed
same,4-OH-CPA formation,"HPH/BT549 coculture; fixed CPA 500 μM, 2 to 24 hours",enhanced 4-OH-CPA formation in the coculture medium at all time points
same,CPA cytotoxicity in BT549 cells with cotreatment,BT549 cells [2],significantly enhanced the cytotoxicity of CPA
same,CYP2B6 protein induction,CYP2B6,clear preferential induction of CYP2B6
same,reversal of DOX-induced cytotoxicity,[3],efficiently reversed by co-administration of DL7076
